Data published in patent publication US7431958B2, “Use of fraction from Cinnamomum zeylanicum for preserving food” (Council of Scientific & Industrial Research, priority 2003, dated 2008).

Tests used:
[1] = antioxidant activity using DPPH method
Text: The water extract obtained in the above methods was screened for antioxidant activity using 1,1-diphenyl-2-picrylhydrazyl (DPPH) [J. Agricultural and Food Chemistry, 50, 81-86, 2002].

[2] = antioxidant activity using β-carotene-linoleate model system; settings: β-carotene-linoleate method
Text: The water extract obtained, was screened for antioxidant activity using β-carotene-linoleate model systems.

COc1ccc(O)c(C(C)(C)C)c1 [BHA, butylated hydroxyanisole]
antioxidant activity ([1]; 25 ppm): 71% | antioxidant activity ([1]; 50 ppm): 94% | antioxidant activity ([2]; 100 ppm): 81% | antioxidant activity ([2]; 200 ppm): 89%
